According to patent US20020028929A1, “Estradiol derivative and immunoassay using the same” (priority 2000, published 2002):

What was measured:
[1] = test system: antiserum RY725 (Rabbit antiserum obtained in Example 1-(1)); test: ELISA system for 17β-estradiol with biotinylated estradiol derivative 2 as labeled compound (standard curve, cross-reactivity test); assay type: binding; conditions: relative to 17β-estradiol (calculated as 100%), labeled compound biotinylated estradiol derivative 2
Protocol: (1) An ELISA system for 17β-estradiol using the derivative of the invention as a labeled compound was prepared in the following manner.
(a) 100 μL of a standard solution or a sample is pipetted into each well of the 96-well plate, followed by addition of 50 μL of the labeled compound (0.2 ng/mL) comprising the biotinylated estradiol derivative of the invention and 50 μL of the antiserum (×32000);
(b) the reaction is allowed to proceed at 4° C. overnight (for 18-20 hours);
(§1) (c) all the wells are washed with the wash solution 4 times;
(d) the reaction is allowed to proceed using a microplate shaker at room temperature for 2 hours;
(e) all the wells are washed with the wash solution 4 times;
(f) […] of the substrate is added;
(g) the reaction is allowed to proceed at room temperature for 20 minutes;
(h) 100 μL of the enzyme reaction stop solution is pipetted into each well;
(i) absorbance at 450 nm is measured with a microplate autoreader.
The specifity of the 17β-estradiol ELISA system was assessed in the following manner.

[2] = test system: antiserum RY469 (Rabbit antiserum prepared in Example 1-(2)); test: ELISA system for estrone with biotinylated estradiol derivative 1 as labeled compound (standard curve, cross-reactivity test); assay type: binding; conditions: relative to estrone (calculated as 100%), labeled compound biotinylated estradiol derivative 1
Protocol: (2) An ELISA system for estrone using the derivative of the invention as a labeled compound was designed in the following manner.
Biotinylated estradiol derivative 1 of the invention
RY469 (Rabbit antiserum prepared in Example 1-(2)
(a) 100 μL of a standard solution or a sample is pipetted into each well of the 96-well plate, followed by addition of 50 μL of the labeled compound (0.25 ng/mL) comprising the biotinylated estradiol derivative of the invention and 50 μL of the antiserum (×32000);
(b) the reaction is allowed to proceed using a microplate shaker at room temperature for 5 hours;
as §1
(d) 100 μL of the HRP-labeled reagent (×5000) is added;
(e) the reaction is allowed to proceed using a microplate shaker at room temperature for 1 hour;
(f) all the wells are washed with the wash solution 4 times;
(g) 100 μL of the substrate is added;
(h) the reaction is allowed to proceed at 20° C. for 20 minutes;
(i) 100 μL of the enzyme reaction stop solution is pipetted into each well;
(j) absorbance at 450 nm is measured with a microplate autoreader.
The specifity of the estrone ELISA system was assessed in the following manner.
ELISA was repeated in a similar manner as in Example 3-(2) except that the estrogens shown in Table 2 were used in place of the standard estrone (Sigma Co.). The standard curve of each of the estrogens was obtained (see FIG. 6).

[3] = general statement on prior art; cited from earlier work

Molecule | Cross-reactivity (%) [1] [%] | Cross-reactivity (%) [2] [%] | solubility in water [3]
COc1cc2c(cc1O)CC[C@@H]1[C@@H]2CC[C@]2(C)[C@@H](O)CC[C@@H]12 [2-Methoxyestradiol] | 1.79 |  | 
C[C@]12CC[C@@H]3c4ccc(O)cc4CC[C@H]3[C@@H]1CC[C@@H]2O [17β-Estradiol] | 100.00 | 33.33 | 
C[C@]12CCC(=O)C=C1CC[C@@H]1[C@@H]2CC[C@]2(C)C(=O)CC[C@@H]12 [(+)-4-Androsteron-3,17-dione] | 0.02 |  | 
CC(C)(c1ccc(O)cc1)c1ccc(O)cc1 [Bisphenol A] |  | <0.001 | 
O=C(O[C@@H]1Cc2c(O)cc(O)cc2O[C@@H]1c1ccc(O)c(O)c1)c1cc(O)c(O)c(O)c1 [Epicatechin gallate] |  | <0.001 | 
C[C@]12CC[C@@H]3c4ccc(O)cc4CC[C@H]3[C@@H]1C[C@@H](O)[C@@H]2O [Estriol] | 0.16 | 0.15 | 
C#C[C@]1(O)CC[C@H]2[C@@H]3CCc4cc(O)ccc4[C@H]3CC[C@@]21C [Ethynylestradiol] | 0.03 |  | 
CC[C@H](c1ccc(O)cc1)[C@@H](CC)c1ccc(O)cc1 [Hexestrol] | 0.00 |  | 
C#C[C@]1(O)CC[C@H]2[C@@H]3CCc4cc(OC)ccc4[C@H]3CC[C@@]21C [Mestranol] | 0.14 |  | 
CC(=O)[C@H]1CC[C@H]2[C@@H]3CCC4=CC(=O)CC[C@]4(C)[C@H]3CC[C@]12C [Progesteron] | 0.01 |  | 
C[C@]12CC[C@H]3[C@@H](CCC4=CC(=O)CC[C@@]43C)[C@@H]1CC[C@@H]2O [Testosterone] | 0.28 |  | 
O=C(O)CCCC[C@@H]1SC[C@@H]2NC(=O)N[C@@H]21 [biotin] |  |  | minimally soluble in water
C[C@]12CCC(=O)C=C1CC[C@@H]1[C@@H]2[C@@H](O)C[C@]2(C=O)[C@@H](C(=O)CO)CC[C@@H]12 [d-ALDOSTERONE] | 0.00 |  | 
C[C@]12CCC3c4ccc(OS(=O)(=O)O)cc4CCC3C1CC[C@@H]2OS(=O)(=O)O (stereo partly drawn) [β-Estradiol 3,7-disulfate] | 0.00 |  | 
C[C@]12CC[C@@H]3c4ccc(O[C@@H]5O[C@H](C(=O)O)[C@@H](O)[C@H](O)[C@H]5O)cc4CC[C@H]3[C@@H]1CC[C@@H]2O [β-Estradiol 3-(β-D-glucronide)] | 37.44 |  | 
CC12CCC3c4ccc(OC5OC(C(=O)O)C(O)C(O)C5O)cc4CCC3C1CCC2OS(=O)(=O)O (stereo not drawn) [β-Estradiol 3-glucronide 17-sulfate] | 0.02 |  | 
C[C@]12CC[C@@H]3c4ccc(OS(=O)(=O)O)cc4CC[C@H]3[C@@H]1CC[C@@H]2O[C@@H]1O[C@H](C(=O)O)[C@@H](O)[C@H](O)[C@H]1O [β-Estradiol 3-sulfate 17-glucronide] | 0.00 |  | 
C[C@]12CC[C@@H]3c4ccc(O)cc4CC[C@H]3[C@@H]1CC[C@@H]2O[C@@H]1O[C@H](C(=O)O)[C@@H](O)[C@H](O)[C@H]1O [β-Estradiol 17-(β-D-glucronide)] | 0.00 |  | 
Catechin |  | <0.001 | 
Nonylphenol |  | <0.001 | 
β-Estradiol 3-sulfate | 11.05 |  | 
